Data on 41 compounds can be found in patent US8796295B2, “Substituted benzamide analogs as mGluR5 negative allosteric modulators and methods of making and using the same” (priority 2009, dated 2014).

Broadly, the IC50 is the point on the concentration scale where inhibition reaches its midpoint. Lower therefore signals inhibition by little substance.

The target in this experiment is rat mGluR5 (Rattus norvegicus (Rat), UniProt P31424). The experiment in a line: cell-based.

Some results are limits rather than exact numbers.

rat mGluR5, sequence (P31424 21-1203): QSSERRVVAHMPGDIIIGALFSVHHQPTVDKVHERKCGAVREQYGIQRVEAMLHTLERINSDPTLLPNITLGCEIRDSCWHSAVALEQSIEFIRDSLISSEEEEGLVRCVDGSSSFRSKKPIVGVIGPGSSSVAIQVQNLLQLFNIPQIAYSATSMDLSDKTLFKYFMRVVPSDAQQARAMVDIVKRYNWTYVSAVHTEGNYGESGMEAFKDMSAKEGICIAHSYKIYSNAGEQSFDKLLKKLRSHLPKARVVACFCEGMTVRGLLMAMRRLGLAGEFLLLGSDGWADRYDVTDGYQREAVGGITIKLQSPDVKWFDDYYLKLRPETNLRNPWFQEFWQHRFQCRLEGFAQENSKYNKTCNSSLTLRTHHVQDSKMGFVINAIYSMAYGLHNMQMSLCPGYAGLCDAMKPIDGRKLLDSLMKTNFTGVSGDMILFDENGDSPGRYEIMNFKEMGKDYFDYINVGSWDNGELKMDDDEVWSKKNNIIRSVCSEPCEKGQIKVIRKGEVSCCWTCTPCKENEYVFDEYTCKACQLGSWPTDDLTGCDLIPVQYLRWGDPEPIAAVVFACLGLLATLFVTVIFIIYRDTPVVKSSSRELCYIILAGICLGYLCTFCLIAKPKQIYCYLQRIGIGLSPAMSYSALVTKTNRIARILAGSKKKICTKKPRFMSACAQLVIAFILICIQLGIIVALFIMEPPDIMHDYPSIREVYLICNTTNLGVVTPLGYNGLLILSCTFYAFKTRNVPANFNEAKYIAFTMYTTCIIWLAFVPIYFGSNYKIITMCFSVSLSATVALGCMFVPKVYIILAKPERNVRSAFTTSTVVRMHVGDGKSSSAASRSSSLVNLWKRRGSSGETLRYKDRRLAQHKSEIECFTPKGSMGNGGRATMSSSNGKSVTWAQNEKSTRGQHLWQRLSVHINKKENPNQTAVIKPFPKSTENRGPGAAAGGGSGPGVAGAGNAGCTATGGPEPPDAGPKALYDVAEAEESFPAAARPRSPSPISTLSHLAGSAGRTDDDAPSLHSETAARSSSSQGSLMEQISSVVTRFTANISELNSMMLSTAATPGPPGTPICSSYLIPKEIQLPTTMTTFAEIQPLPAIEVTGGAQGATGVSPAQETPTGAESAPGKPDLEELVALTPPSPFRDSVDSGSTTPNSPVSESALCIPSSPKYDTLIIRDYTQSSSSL
Procedure: The cells were loaded with a Ca2+-sensitive fluorescent dye (e.g., Fluo-4), and the plates were washed and placed in the FDSS instrument. Test compound was applied to cells 3 seconds after baseline readings were taken. Cells were incubated with the test compounds for 140 seconds and then stimulated with an EC20 concentration of an mGluR5 agonist (e.g., glutamate, 3,5-dihydroxyphenylglycine, or quisqualate); 60-80 seconds later an EC80 concentration of agonist was added and readings taken for an additional 40 seconds. Data were collected at 1 Hz. […] Concentration response curves were generated using a four parameter logistical equation.
The above described assay was operated in two modes. In the first mode (utilizing a triple add protocol), a range of concentrations of the present compounds were added to cells, followed by two single fixed concentrations of agonist (EC20 followed by EC80). If a compound acted as a potentiator, an EC50 value for potentiation of the EC20 response and a maximum extent of potentiation by the compound at this concentration of agonist was determined by non-linear curve fitting. If a compound acted as an antagonist, an IC50 value for antagonism of the EC80 response and a maximum extent of antagonism by the compound at this concentration of agonist was determined by non-linear curve fitting. In the second mode (utilizing a double add protocol), several fixed concentrations of the present compounds were added to various wells on a plate, followed by a range of concentrations of agonist for each concentration of present compound; the EC50 values for the agonist at each concentration of compound were determined by nonlinear curve fitting. A decrease in the EC50 value of the agonist with increasing concentrations of the present compounds (a leftward shift of the agonist concentration-response curve) is an indication of the degree of mGluR5 positive allosteric modulation at a given concentration of the present compound. An increase in the EC50 value of the agonist with increasing concentrations of the present compounds (a rightward shift of the agonist concentration response curve) is an indication of the degree of mGluR5 antagonism at a given concentration of the present compound. The second mode also indicates whether the present compounds also affect the maximum response to mGluR5 to agonists.
The mGluR5 activity was determined using the metabotropic glutamate receptor activity assays in human embryonic kidney cells as described herein, wherein the human embryonic kidney cells were transfected with rat mGluR5. The mGluR5 activity data for some compounds are shown as the average of at least three experiments with the standard error in these cases. If no error is indicated for the mGluR5 activity, the values given represent the results from a single experiment or the average of two experiments.

`O=C(Nc1ccc(F)cn1)c1cccc(Oc2cccnc2)c1` showed a half-inhibitory concentration (IC50) of 7450 nM.

For `Cc1csc(NC(=O)c2cccc(Oc3cccnc3)c2)n1`, the IC50 turned out to be 296 nM.

In the case of `Cc1nsc(NC(=O)c2cccc(Oc3cccnc3)c2)n1`, the IC50 is > 30000 nM.

For `O=C(Nc1ccncn1)c1cccc(Oc2cccnc2)c1`, the IC50 is > 10000 nM.

In the case of `N#Cc1csc(NC(=O)c2cccc(Oc3cccnc3)c2)n1`, the 50% inhibitory concentration (IC50) was 3590 nM.

On to `O=C(Nc1nc(C(F)(F)F)cs1)c1cccc(Oc2cccnc2)c1`, for which the IC50 is > 30000 nM.

For `O=C(Nc1nccs1)c1cccc(Oc2cncnc2)c1`, the IC50 was determined as 4550 nM.

Take `Cc1csc(NC(=O)c2cccc(Oc3cncnc3)c2)n1`: the IC50 stood at 65 nM.

In turn, `Cc1csc(NC(=O)c2cc(Cl)cc(Oc3cccnc3)c2)n1` yielded an IC50 of 6.5 nM.

Turning to `O=C(Nc1nccs1)c1cc(F)cc(Oc2cncnc2)c1`, the IC50 stood at 5160 nM.

Turning to `Cc1nc(NC(=O)c2cc(F)cc(Oc3cncnc3)c2)sc1F`, the IC50 came out at 52 nM.

`O=C(Nc1ncc(F)cc1F)c1cc(Cl)cc(Oc2cncnc2)c1`: the IC50 is > 30000 nM.

`O=C(Nc1ccc(Cl)cn1)c1cc(Cl)cc(Oc2cncnc2)c1` had an IC50 of 87 nM.

On to `Cc1cc(NC(=O)c2cc(Cl)cc(Oc3cncnc3)c2)ncc1F`, for which the IC50 was found to be 2780 nM.

On to `O=C(Nc1ncccc1F)c1cc(Cl)cc(Oc2cncnc2)c1`, for which the IC50 was > 10000 nM.

Consider `O=C(Nc1nc(C2CC2)cs1)c1cc(Cl)cc(Oc2cncnc2)c1`, for which the IC50 stood at 198 nM.

The compound `O=C(Nc1nc(C(F)F)cs1)c1cc(Cl)cc(Oc2cncnc2)c1` registered an IC50 of 389 nM.

`CCc1ccnc(NC(=O)c2cc(Cl)cc(Oc3cncnc3)c2)c1` displayed an IC50 of 4160 nM.

The compound `Cc1nc(NC(=O)c2cc(Cl)cc(Oc3cncnc3)c2)sc1Br` showed an IC50 of 3700 nM.

In turn, `O=C(Nc1ccc(F)c(CF)n1)c1cc(F)cc(Oc2cncnc2)c1` registered an IC50 of 4540 nM.

In turn, `COc1cccc(NC(=O)c2cc(F)cc(Oc3cncnc3)c2)n1` showed an IC50 of 1060 nM.

`O=C(Nc1ccc(F)c(C(F)F)n1)c1cc(Cl)cc(Oc2cncnc2)c1` yielded a half-inhibitory concentration (IC50) of 779 nM.

On to `Cc1nc(NC(=O)c2cc(F)cc(Oc3cncnc3)c2)ccc1F`, for which half-maximal inhibition (IC50) was put at 360 nM.

For `Cc1nc(NC(=O)c2cc(Cl)cc(Oc3cncnc3)c2)ccc1F`, the IC50 worked out at 54 nM.

As for `Cc1nc(NC(=O)c2cc(F)cc(Oc3cncnc3)c2)sc1C(C)(C)C`, the IC50 is > 10000 nM.

As to `O=C(Nc1nc(C2CC2)cs1)c1cc(F)cc(Oc2cncnc2)c1`, half-maximal inhibition (IC50) required 345 nM.

For the compound `Cc1cncc(NC(=O)c2cc(Cl)cc(Oc3cncnc3)c2)c1`, the IC50 is > 10000 nM.

In the case of `Cc1cncc(NC(=O)c2cc(F)cc(Oc3cncnc3)c2)c1`, the IC50 was > 10000 nM.

Compound `CN(c1cccnc1)c1cccc(C(=O)Nc2nccs2)c1` came in with a half-inhibitory concentration (IC50) of 3560 nM.

With `CN(c1cccnc1)c1cc(F)cc(C(=O)Nc2nc(C#N)cs2)c1`, inhibition was half-maximal at 2190 nM (IC50).

`CN(c1cccnc1)c1cc(F)cc(C(=O)Nc2nccs2)c1` registered an IC50 of 1250 nM.

`Cc1csc(NC(=O)c2cc(F)cc(N(C)c3cccnc3)c2)n1`: the IC50 amounted to 176 nM.

`CN(c1cccnc1)c1cc(Cl)cc(C(=O)Nc2nccs2)c1` had an IC50 of 648 nM.

Turning to `Cc1csc(NC(=O)c2cc(Cl)cc(N(C)c3cccnc3)c2)n1`, the IC50 came out at 49 nM.

As to `CN(c1cncnc1)c1cc(F)cc(C(=O)Nc2cc(Cl)ccn2)c1`, the IC50 was 106 nM.

Consider `CN(c1cncnc1)c1cc(Cl)cc(C(=O)Nc2cc(Cl)ccn2)c1`, for which the midpoint of inhibition, the IC50, lay at 262 nM.

As for `CN(c1cncnc1)c1cc(F)cc(C(=O)Nc2ccc(Cl)cn2)c1`, the IC50 is > 30000 nM.

Compound `CN(c1cncnc1)c1cc(Cl)cc(C(=O)Nc2ccc(Cl)cn2)c1` yielded an IC50 of 929 nM.

Take `Cc1cncc(NC(=O)c2cc(F)cc(N(C)c3cncnc3)c2)c1`: the IC50 is > 10000 nM.

For the compound `Cc1cncc(NC(=O)c2cc(Cl)cc(N(C)c3cncnc3)c2)c1`, the IC50 was > 10000 nM.

Regarding `Cc1cc(Oc2cncnc2)cc(C(=O)Nc2ccc(F)cn2)c1`, the IC50 was determined as 22 nM.
